Active and inactive are the calls of the source. The rule behind the calls is not given here. Bounds are passed on as bounds.

The experiment deals with Galpha16-expressing cells, calcium fluorescence, counterscreen. Description: nonselective Ga16 antagonists, potency, late-stage follow-up, counter-screen for TAAR1 agonist project, cell-based, fluorescence, dose response (AID 743233).
Regarding `Nc1nc(Nc2cccc(F)c2)nc2ccccc12`, the IC50 is > 29.9 µM (inactive). For `O=C(CCN1CCC(c2ccccc2)C1)c1ccc2c(c1)OCCO2` (stereo unspecified) the value was > 29.9 µM (inactive); for `CCOC(=O)C(NC(=O)CC)(N1CCc2ccccc2C1)C(F)(F)F` (stereo unspecified), > 29.9 µM (inactive); for `O=c1[nH]cc(NCCc2ccccc2)c(=O)[nH]1`, > 29.9 µM (inactive).

With `O=C(CCCCl)N1CCc2[nH]c3ccccc3c2C1`, the IC50 was > 29.9 µM (inactive). As for `O=C(CCN1CCc2ccccc2CC1)c1ccc2c(c1)OCCO2`, the figure is > 29.9 µM (inactive).

As for `O=C(CCN1CCC(c2ccccc2)C1)c1cccs1` (stereo unspecified), the IC50 was > 29.9 µM (inactive). Regarding `CC1(C)CCCN(C(=O)c2coc(=O)c(Br)c2)C1`, the IC50 was > 29.9 µM (inactive). For `CCOC(=O)C(NC(C)=O)(N1CCc2ccccc2C1)C(F)(F)F` (stereo unspecified) the value was > 29.9 µM (inactive); for `c1ccc2c(c1)CCN(c1nc3cc4c(cc3s1)OCO4)C2`, > 29.9 µM (inactive). On to `O=C(Nc1cccc2ccccc12)N1CCc2ccccc2C1`, for which the IC50 is > 29.9 µM (inactive).

Regarding `O=C(Nc1ccccc1)Nc1ccncc1`, the IC50 is > 29.9 µM (inactive). Turning to `O=C(C(=O)N1CCc2ccccc2C1)c1cn(CC(=O)N2CCCCC2)c2ccccc12`, the IC50 was > 29.9 µM (inactive). For `CC(=NCCc1ccccc1)C1CCOC1=O` (stereo unspecified) the value was > 29.9 µM (inactive); for `NC(N)=NN=Cc1c(Cl)cccc1Cl`, > 29.9 µM (inactive).

`CC(=C1C(=O)c2ccccc2C1=O)N1CCc2ccccc2C1`: the IC50 is > 29.9 µM (inactive). For `Cc1ccc(NC(=O)CCN2CCc3ccccc3C2)cc1`, the IC50 is > 29.9 µM (inactive).

As to `COc1cc(C(=O)CCN2CCC(c3ccccc3)C2)cc(OC)c1OC` (stereo unspecified), the IC50 was > 29.9 µM (inactive).

On to `NCc1c(O)ccc2ccccc12`, for which the IC50 was > 29.9 µM (inactive). Turning to `c1ccc2c3c([nH]c2c1)CCNC3`, the IC50 was > 29.9 µM (inactive). For `O=C(Nc1ccncc1)Nc1ccc(F)cc1` the value was > 29.9 µM (inactive). As for `Cc1cc(N(C)C)nc(Nc2ccccc2)n1`, the IC50 is > 29.9 µM (inactive). In the case of `OCCNc1nc(Nc2cccc(O)c2)nc2ccccc12`, the IC50 was > 29.9 µM (inactive).

On to `Cc1cc(C)n(C(CC(=O)N2CCc3ccccc3C2)C(=O)O)n1` (stereo unspecified), for which the IC50 was > 29.9 µM (inactive). As for `OCCNc1nc(Nc2ccc(O)cc2)nc2ccccc12`, the figure is > 29.9 µM (inactive). For `Cc1[nH]c2ccccc2c1CN1CCc2ccccc2C1` the value was > 29.9 µM (inactive); for `NC(N)=Nc1cc2ccccc2c2ccccc12`, > 29.9 µM (inactive).

With `Nc1nc(Nc2ccccc2)nc2ccccc12`, the IC50 was > 29.9 µM (inactive).

Consider `O=C(Nc1cccnc1)Nc1cccc(F)c1`, for which the IC50 was > 29.9 µM (inactive). On to `c1ccc(CCN2CN(CCCN3CCOCC3)c3nc4ccccc4n3C2)cc1`, for which the IC50 was > 29.9 µM (inactive). As for `c1ccc(CCn2nnnc2C(c2cccs2)N2CCN(Cc3ccc4c(c3)OCO4)CC2)cc1` (stereo unspecified), the IC50 is > 29.9 µM (inactive).
